The results in this text go back to patent publication US8258100B2, “Ligand/lytic peptide methods of use” (Board of Supervisors of Louisiana State University and …, priority 1997, dated 2012).

Where a SMILES comes first, the peptide text is derived from it. Where no end group is shown, it is not given here.

The target in data set [1] is T1, GnRH receptor (Rattus norvegicus, UniProt P30969).
T1 construct: specifically displaced radiolabelled monoiodinated-GnRH from rat pituitary membranes; from tissue; host or cells: rat pituitary membranes
T1 sequence (P30969 1-327): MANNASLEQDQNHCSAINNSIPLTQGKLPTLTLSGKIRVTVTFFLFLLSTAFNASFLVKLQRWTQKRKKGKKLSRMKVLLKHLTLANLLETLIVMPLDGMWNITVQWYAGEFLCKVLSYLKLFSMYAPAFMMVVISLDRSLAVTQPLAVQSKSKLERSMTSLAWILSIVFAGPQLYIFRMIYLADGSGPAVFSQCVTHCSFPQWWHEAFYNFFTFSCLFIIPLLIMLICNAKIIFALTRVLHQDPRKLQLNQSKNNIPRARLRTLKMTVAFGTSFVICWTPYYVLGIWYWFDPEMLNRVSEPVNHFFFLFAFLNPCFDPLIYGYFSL
As to the kind of experiment: displacement of radiolabelled monoiodinated-GnRH from rat pituitary membranes. In kind it is binding. The text has this:
We also synthesized D-Lys^6GnRH (SEQ. ID NO. 13), so that hecate could be conjugated to the D-Lys^6, a position that could minimize interference with binding of the GnRH domain to the GnRH receptor. These synthetic peptides specifically displaced radiolabelled monoiodinated-GnRH from rat pituitary membranes.

The target in data set [2] is T2, LH receptors (Bos taurus, UniProt Q28005).
T2 construct: endogenous in cells; host or cells: primary bovine granulosa cells from pre-ovulatory follicles
T2 sequence (Q28005 27-701): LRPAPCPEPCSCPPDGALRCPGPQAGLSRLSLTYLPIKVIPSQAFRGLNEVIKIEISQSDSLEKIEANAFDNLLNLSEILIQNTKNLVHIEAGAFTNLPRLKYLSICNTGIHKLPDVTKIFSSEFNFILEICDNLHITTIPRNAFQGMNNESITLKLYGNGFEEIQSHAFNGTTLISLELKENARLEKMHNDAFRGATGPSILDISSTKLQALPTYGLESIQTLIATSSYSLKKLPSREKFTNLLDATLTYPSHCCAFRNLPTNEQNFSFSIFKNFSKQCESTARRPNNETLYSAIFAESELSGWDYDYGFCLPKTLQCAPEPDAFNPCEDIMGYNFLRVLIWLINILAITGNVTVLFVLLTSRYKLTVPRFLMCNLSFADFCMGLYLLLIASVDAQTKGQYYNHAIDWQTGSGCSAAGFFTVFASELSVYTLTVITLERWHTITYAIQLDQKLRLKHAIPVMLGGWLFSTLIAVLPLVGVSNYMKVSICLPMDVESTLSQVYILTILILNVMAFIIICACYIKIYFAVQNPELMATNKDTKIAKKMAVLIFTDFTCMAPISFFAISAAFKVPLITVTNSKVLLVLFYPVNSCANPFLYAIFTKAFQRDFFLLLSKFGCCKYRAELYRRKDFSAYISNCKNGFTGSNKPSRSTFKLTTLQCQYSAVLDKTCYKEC
Briefly: binding of bLH fragment to LH receptors on granulosa cells. Particulars: data not shown. Also on record: species or system bovine. The text has this: (§1) Stimulation of target cell hormone production was not required for cell lysis.

Data set [3] has as its system LH receptors on the target granulosa cells. As to the kind of experiment: steroid hormone production by granulosa cells. Particulars: data not shown. In kind it is cell-based, bovine.
Description: as §1

In data set [4] the test system is Sprague-Dawley female rats. Briefly: Sprague-Dawley female rats, single intravenous treatment, necropsy at 48 or 96 hours, PAS stain of pituitary. Format: in vivo, rat. Particulars: D-hecate 674 μg, GnRH 334 μg, GnRH-hecate 1 mg. On the procedure:
Eight sexually mature, Sprague-Dawley female rats were randomly assigned to one of eight treatments. Each group of rats received a single treatment intravenously, as described below. Rats were sacrificed and necropsied either 48 or 96 hours after treatment. The ovaries, uterus, pancreas, liver, spleen, lungs, heart, thyroid, and adrenal glands were fixed in 10% buffered formalin; sectioned; and stained with H&E (hematoxylin and eosin) stain; except that the pituitary glands were stained with PAS (periodic acid-Schiff) stain with no counter-stain. The treatments were selected so that each animal received an equimolar amount of the compound with which it was treated.

The subject of data set [5] is sexually immature female rats. As to the kind of experiment: immature female rats, intravenous GnRH-hecate or GnRH then hecate, histology and immunocytochemistry at 14 days. In kind it is in vivo, rat. Particulars: as E29. The procedure:
Another set of experiments was performed to study the in vivo effects of the GnRH-hecate conjugate on female rats and rabbits. The ovaries, uterus, oviducts, adrenals, spleen, thyroids, pancreas, liver, lungs, and heart were processed for histological analysis. […] The immunocytochemical staining procedures we used followed generally the procedures of M. Rahmanian et al., “Histological and immunocytochemical characterization of pituitary cell types in ponies,” Proc. 13th Soc. Equine Nutrition & Phys. Symp., pp. 348-349 (1993); M. Rahmanian et al., “Immunocytochemical localization of luteinizing hormone and follicle-stimulating hormone in the equine pituitary,” J. Anim. Sci., vol. 76, pp. 839-846 (1998); M. Rahmanian et al., “Immunocytochemical localization of prolactin and growth hormone in the equine pituitary,” Animal Sci., vol. 75, pp. 3010-3018 (1997); and P. Melrose et al., “Comparative topography of the immunoreactive alpha-melanocyte-stimulating hormone neuronal system in the brains of horses and rats,” Brain Beh. & Evol., vol. 32, pp. 226-235 (1988).
Brains were serially sectioned on a Vibrotome from the level of the diagonal band of Broca to the mammillary body. […]

For data set [6], the system named is sexually immature female rats. Briefly: immature female rats, intravenous GnRH-hecate dose series. Particulars: 0.1 to 1.5 mg IV, 24 hours or 14 days. Format: in vivo, rat. The procedure:
Sexually immature (33 day old) female rats (randomly allocated into groups of three) were injected intravenously with saline or GnRH-hecate in saline as follows:
Animals were sacrificed at 24 hours or at 14 days after treatment. […] In the rats sacrificed fourteen days after treatment, 66% and 87% of the GnRH-receptor-containing neurons were abnormal in the rats that had received 1.0 and 1.5 mg of GnRH-hecate, respectively. Axonal degeneration in the 1.5 mg GnRH-hecate group was accompanied by over 90% reduction in median eminence staining for GnRH.

Data set [7] concerns female New Zealand rabbits. As to the kind of experiment: mature female New Zealand rabbits, intravenous GnRH-hecate, GnRH challenge day 46, necropsy day 47. In kind it is in vivo, rabbit. Particulars: 5 or 10 mg IV. The procedure:
Seven sexually mature female New Zealand rabbits were injected intravenously with saline containing GnRH-hecate as follows:
Forty-six days later all rabbits were injected intramuscularly with 100 μg GnRH. Blood samples were collected at 0, 1, 4, and 24 hours, and LH and FSH levels in the blood samples were measured by radioimmunoassay. […] The rabbits were sacrificed the next day (day 47) for postmortem histological analysis. […] Ovarian and pituitary weights were reduced by the 10 mg GnRH-hecate treatment.

In data set [8] the test system is female rabbits. As to the kind of experiment: mature female rabbits, intravenous GnRH-hecate, GnRH challenge day 6, sacrifice day 7. In kind it is in vivo, rabbit. Particulars: 10 mg IV. The procedure:
Nine sexually mature female rabbits were injected intravenously with saline containing 0 mg (n=4) (Treatment 46) or 10 mg GnRH-hecate (n=5) (Treatment 47). Rabbits were injected intramuscularly with GnRH on day 6 posttreatment. Blood samples were collected for radioimmunoassay of LH and FSH as described above, and the animals were sacrificed on day 7 post-treatment. […] The effects of GnRH-hecate on CNS morphology and immunocytochemical results were similar to those described above in Examples 34-45. Again, the effects were more pronounced on GnRH neurons than on staining of pituitary gonadotropes.

Data set [9] deals with Diatraea saccharalis. As to the kind of experiment: fertility of sugar cane borer after inoculation of late-stage pupae. In kind it is in vivo. Particulars: 10 pupae inoculated, 1.0 μL of 1.35 mM peptide in saline. The procedure: Late-stage Diatraea saccharalis (sugar cane borer) pupae were inoculated with 1.0 μL of saline solution containing 1.35 mM concentration of peptide as stated, or saline alone as control. The pupae were allowed to complete metamorphosis. […] Adult female moths were allowed to mate with treated males, and then lay eggs. The viability of the eggs was measured by counting the number hatching into larvae.

Data set [10] relates to bovine small luteal cells. As to the kind of experiment: in vitro lysis of bovine small luteal cells (Trypan Blue exclusion, lactic dehydrogenase release). Format: cell-based, cattle. Particulars: 22 hr. The procedure: We studied in vitro lysis of bovine luteal cells with GnRH-hecate conjugate and with hecate-bLH conjugate (SEQ. ID NO. 12). (The bLH component of the conjugate is a 15-mer fragment of the beta chain of luteinizing hormone, SEQ. ID NO. 11). Small luteal cells were collected from cattle corpora lutea post-slaughter.
Small luteal cells in culture were incubated with one of the following treatments for 22 hours, and were then examined for viability using Trypan Blue exclusion and release of lactic dehydrogenase.

Data set [11] concerns bovine granulosa cells. As to the kind of experiment: in vitro lysis of bovine granulosa cells. Format: cell-based. Particulars: 1 μM. The text has this:
We also studied in vitro lysis of bovine granulosa cells with GnRH-hecate conjugate and with hecate-bLH conjugate. Granulosa cells were isolated from bovine pre-ovulatory follicles. (Granulosa cells are hormonally active cells with numerous LH receptors.) Our experiments with granulosa cells were otherwise generally similar to those described above for Examples 24-31.

For data set [12], the system named is DU145 cells. As to the kind of experiment: in vitro lysis of human prostate cancer cells, Trypan blue exclusion. Particulars: 22 hours; GnRH-hecate 50 μM; free hecate 30 μM; hecate-bLH 90 or 60 μM. In kind it is cell-based. The text has this:
(§2) LNCaP FGC and DU145 human prostate cancer cell lines were purchased from the American Type Culture Collection (ATCC, Rockville Md.), ATCC accession numbers CRL 1740 and HTB-81, respectively. The LNCaP FGC adenocarcinoma cell line was originally obtained from a person. LNCaP FGC cells are sensitive to dihydrotestosterone and to estrogens (A+). The DU145 carcinoma was originally isolated from the brain of a person with metastatic carcinoma of the prostate; this cell line is not sensitive to steroid hormones (A−).
(§3) Cells were detached from culture flasks, and 1000 cells/well were transferred to 24 well culture plates. The cells were incubated for 24 hours with 10% calf serum. Cells were subsequently incubated without serum for 48 hours. Cells were then incubated for 22 hours with one of the following treatments:
(§4) Trypan blue exclusion was used to assess viability of the cells after treatment. […] However, treatment with a lytic peptide alone may not be selective in vivo unless specific cell types are separately stimulated, for example by hormones controlling their activity.

In data set [13] the test system is LNCaP FGC cells. The description is as above. In kind it is cell-based.
Description: as §2, §3, §4

Regarding “D-Lys^6GnRH-hecate: hecate conjugated to the D-Lys^6 of D-Lys^6GnRH”, the “displacement of radiolabelled monoiodinated-GnRH, as measured by cpm” value in data set [1] (rat pituitary membranes) is listed as “comparable to (and actually slightly greater than) displacement by native mammalian GnRH”.
As to “15-mer fragment of the bLH subunit: 15-mer fragment of the beta chain of luteinizing hormone, receptor binding site (SEQ. ID NO. 11) (SYAVALSCQCALCRR)”, the “binding to LH receptors on granulosa cells” value in data set [2] is listed as “specifically bound to LH receptors”. Further, the “production of steroid hormones” value in data set [3] was “did not initiate the production of steroid hormones”.
On to “D-Lys^6GnRH: GnRH analog with D-Lys at position 6 (SEQ. ID NO. 13)”, for which the “displacement of radiolabelled peptide relative to equimolar native GnRH” value in [1] (molar basis over a 1000-fold concentration range (n=6)) is on record as 187%±8%.
Take “QHWSYGLRPGFALALKALKKALKKLKKALKKAL [GnRH-hecate]”: in data set [4], the “gross lesions in the organs” value is “No gross lesions were noted in the organs of any of the four animals, other than the pituitary”. For the same compound, in data set [5], the “C1 and C3 fields of the hippocampus” value is on record as “histological damage to cells”; the “pathological changes in other tissues” value is given as “No pathological changes were noted in any other tissues”. The “VP staining in the CNS” value in [6] is listed as “not altered”. Also, the “hippocampus and other areas of the brain containing high concentrations of GnRH” value in [7] was “not discernibly affected”. The “effects on peripheral tissues or pituitary weight” value in data set [8] is given as “No effects were noticed”. Besides, in data set [9], the “pupae completing metamorphosis into adult moths” value was “Eight”.
Regarding “hecate-bLH: conjugate of hecate and a 15-mer fragment of the beta chain of luteinizing hormone (SEQ. ID NO. 12) (FALALKALKKALKKLKKALKKALSYAVALSCQCALCRR)”, the “number of cells killed relative to hecate alone at the same concentrations” value in data set [10] (10, 5, 1 μM) is listed as “approximately twice the number of cells as were killed by hecate alone”. In data set [10] (versus hecate alone), the “lactic dehydrogenase activity (cell killing)” value is “killed a significantly greater number of cells than did hecate alone”. Further, the “cell death of small luteal cells versus hecate alone” value in data set [10] (all three doses (10, 5, 1 μM)) was “significant increases in cell death as compared to treatment with hecate alone”. In data set [11], the “levels of lactic dehydrogenase released” value is “significantly higher than the levels of enzyme released following treatment with 1 μM hecate alone” and the “number of target cells killed relative to hecate alone” value is on record as “about twice the number of target cells as did hecate alone”. Besides, in data set [12], the “killing of cells (viability)” value was “killed almost all DU145 cells”. The “killing of cells (viability)” value in [13] (22 hours, GnRH-hecate 50 μM, hecate-bLH 90 or 60 μM) is recorded as “had little effect”. For the same compound, in data set [13] (FSH pre-treatment, followed by 90 μM hecate-bLH), the “sensitivity of cells to conjugate” value is on record as “more sensitive to the hecate-bLH conjugate than those that were not pre-treated”.
Regarding `CC(C)C[C@@H](NC(=O)[C@@H](C)NC(=O)[C@@H](CCCCN)NC(=O)[C@@H](CCCCN)NC(=O)[C@@H](CC(C)C)NC(=O)[C@@H](C)NC(=O)[C@@H](CCCCN)NC(=O)[C@@H](CCCCN)NC(=O)[C@@H](CC(C)C)NC(=O)[C@@H](CCCCN)NC(=O)[C@@H](CCCCN)NC(=O)[C@@H](CC(C)C)NC(=O)[C@@H](C)NC(=O)[C@@H](CCCCN)NC(=O)[C@@H](CCCCN)NC(=O)[C@@H](CC(C)C)NC(=O)[C@@H](C)NC(=O)[C@@H](CCCCN)NC(=O)[C@@H](CC(C)C)NC(=O)[C@@H](C)NC(=O)[C@@H](CC(C)C)NC(=O)[C@@H](C)NC(=O)[C@H](N)Cc1ccccc1)C(=O)O` [D-hecate, reference compound] (HELM PEPTIDE1{[dF].[dA].[dL].[dA].[dL].[dK].[dA].[dL].[dK].[dK].[dA].[dL].[dK].[dK].[dL].[dK].[dK].[dA].[dL].[dK].[dK].[dA].[dL]}$$$$V2.0), the “gross lesions in the organs” value in data set [4] is “No gross lesions”. Moreover, in data set [9], the “pupae completing metamorphosis into adult moths” value was “Six”.
